Data as given in patent US20100197643A1, “PHYTOCHEMICAL-RICH OILS AND METHODS RELATED THERETO” (priority 2007, published 2010).

Tests used:
[1] = Phenolic storage stability of açai oil, 10 weeks at 20, 30, 40° C.; type: physicochemical; conditions: for change in concentration after storage: 10 weeks at 20 or 30 ° C.
Caco-2 cell monolayers = assay: Transepithelial transport model, apical to basolateral; type: in vitro ADME; conditions: 2 hours, 37° C., not affected by initial polyphenolic concentration
caspase-3 = assay: Caspase-3 activation in HL-60 cells; type: cell-based, human; conditions: optimal time (2, 3, 4 hours tested), highest concentration

In the case of `Oc1cc(O)c2c(c1)O[C@H](c1ccc(O)c(O)c1)[C@@H](O)C2` [(+)-catechin], the “change in concentration after storage” value [1] is reported as “no significant changes” and the “transport efficiency (percentage of initial apical concentration detected on basolateral side)” value (Caco-2 cell monolayers; from açai oil extracts) is reported as “approximately 0.1%”.

For `O=c1c(O)c(-c2ccc(O)c(O)c2)oc2cc(O)cc(O)c12` [Quercetin, quercetin], the “caspase-3 activation (maximal)” value (caspase-3) was “double”.

With `CC[C@@]1(O)C(=O)OCc2c1cc1n(c2=O)Cc2cc3ccccc3nc2-1` [camptotechin] the “caspase-3 activation (maximal)” value (caspase-3) was 7 fold.

With `COc1cc(/C=C/C(=O)O)ccc1O` [ferulic acid] the “decrease in concentration after storage” value ([1]; 10 weeks at 20° C.) was 9.3%, the “decrease in concentration after storage” value ([1]; 10 weeks at 30° C.) was 20.3% and the “decrease / change in concentration after storage” value ([1]; 10 weeks at 40° C.) was 33.1%. For the same molecule, the “transport efficiency (percentage of initial apical concentration detected on basolateral side)” value (Caco-2 cell monolayers; from açai oil extracts) was “approximately 0.1%”.

For `O=C(O)c1ccc(O)cc1` [p-hydroxybenzoic acid], the “change in concentration after storage” value [1] was “no significant changes” and the “transport efficiency (percentage of initial apical concentration detected on basolateral side)” value (Caco-2 cell monolayers; from açai pulp extracts) was “approximately 2.0%”.

In the case of `O=C(O)c1ccc(O)c(O)c1` [protocatechuic acid, 3,4-dihydroxybenzoic acid], the “change in concentration after storage” value [1] is reported as “no significant changes”.

With `COc1cc(C(=O)O)cc(OC)c1O` [syringic acid] the “change in concentration after storage” value [1] was “no significant changes” and the “transport efficiency (percentage of initial apical concentration detected on basolateral side)” value (Caco-2 cell monolayers; from açai pulp extracts) was “approximately 0.6%”.

In the case of `COc1cc(C(=O)O)ccc1O` [vanillic acid], the “change in concentration after storage” value [1] is reported as “no significant changes”.
